# Test results taken from ChEMBL document CHEMBL4715764, “ArgTX-636, a polyamine isolated from spider venom: A novel class of melanogenesis inhibitors” (Bioorg Med Chem, 2016).
# The source made the active and inactive calls. The calls are words filed in the database; no cut-off is given here.
# Key:
# [1] = target: T1, Tyrosinase (Mus musculus) (UniProt P11344); assay: Inhibition of tyrosinase in mouse B16-F10 cells at 0.421 uM using L-DOPA as substrate incubated for 30 mins followed by substrate addition and measured after 40 mins; format: cell-based; conditions: time 70.0 min
# T1 sequence (whole entry): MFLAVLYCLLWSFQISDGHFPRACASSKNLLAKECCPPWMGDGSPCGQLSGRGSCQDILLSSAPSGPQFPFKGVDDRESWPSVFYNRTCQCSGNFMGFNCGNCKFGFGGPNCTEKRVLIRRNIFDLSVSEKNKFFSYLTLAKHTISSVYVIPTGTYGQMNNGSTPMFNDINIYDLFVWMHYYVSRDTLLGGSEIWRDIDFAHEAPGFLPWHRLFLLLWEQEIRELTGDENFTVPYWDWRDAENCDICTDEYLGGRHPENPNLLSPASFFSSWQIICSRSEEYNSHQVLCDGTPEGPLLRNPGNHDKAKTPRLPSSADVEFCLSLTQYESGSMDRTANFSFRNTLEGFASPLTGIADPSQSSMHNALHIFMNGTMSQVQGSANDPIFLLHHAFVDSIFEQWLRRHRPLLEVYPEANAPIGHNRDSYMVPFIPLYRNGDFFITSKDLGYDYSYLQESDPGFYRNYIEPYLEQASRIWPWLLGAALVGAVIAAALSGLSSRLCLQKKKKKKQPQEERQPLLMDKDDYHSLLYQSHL
# [2] = target: T2, Mushroom tyrosinase (Agaricus bisporus) (UniProt O42713+Q00024+C7FF04+C7FF05); assay: (§1) Inhibition of mushroom tyrosinase using L-DOPA as substrate measured for 15 mins by UV-vis spectrophotometry
# [3] = target: T3, Mushroom tyrosinase (Agaricus bisporus, UniProt O42713+Q00024+C7FF04+C7FF05); assay: as §1
# [4] = target: T3, Mushroom tyrosinase; assay: Mixed type inhibition of mushroom tyrosinase using L-DOPA as substrate assessed as enzyme-substrate complex constant measured for 15 mins by UV-vis spectrophotometry based Line-weaver Burk plot analysis
# [5] = target: T3, Mushroom tyrosinase; assay: Mixed type inhibition of mushroom tyrosinase using L-DOPA as substrate assessed as inhibitory constant measured for 15 mins by UV-vis spectrophotometry based Line-weaver Burk plot analysis
# [6] = system: B16-F10; assay: Inhibition of melanin production in mouse B16-F10 cells incubated for 48 hrs; format: functional, cell-based; conditions: dose 0-0.0421 µM
# [7] = system: B16-F10; assay: Reduction in alpha-MSH-induced tyrosinase expression in mouse B16-F10 cells at 0.041 uM incubated for 48 hrs by Western blot analysis; format: functional, cell-based
# [8] = target: T2, Mushroom tyrosinase (Agaricus bisporus); assay: (§2) Inhibition of mushroom tyrosinase using DHICA as substrate measured for 15 mins by UV-vis spectrophotometry
# [9] = target: T3, Mushroom tyrosinase; assay: as §2
# [10] = system: M4Beu cell line; assay: Cytotoxicity against human M4Be cells assessed as reduction in cell viability at 42.1 uM incubated for 6 hrs by MTT assay; format: cell-based
# [11] = system: B16-F10; assay: Cytotoxicity against mouse B16-F10 cells assessed as reduction in cell viability at 42.1 uM incubated for 6 hrs by MTT assay; format: cell-based; conditions: b16-f10, 6 h
# [12] = system: B16-F10; assay: Reduction in alpha-MSH-induced TRP-1 expression in mouse B16-F10 cells at 0.041 uM incubated for 48 hrs by Western blot analysis; format: functional, cell-based
# [13] = target: T3, Mushroom tyrosinase
# Description: Inhibition of diphenolase activity of mushroom tyrosinase using L-DOPA substrate
structure (smiles),measurement,setting,value
N=C(N)NCCC[C@H](N)C(=O)NCCCNCCCNCCCCCNC(=O)[C@H](CC(N)=O)NC(=O)Cc1ccc(O)cc1O,inhibition,[1],Active
same,inhibition,[2],Dose-dependent effect
same,IC50,[3],8.34 µM
same,Ki,[4],20.36 µM
same,Ki,[5],10.77 µM
same,inhibition,[6],Dose-dependent effect
same,inhibition,[7],inactive
same,inhibition,[8],Dose-dependent effect
same,IC50,[9],48.22 µM
same,Activity,[10],Non-Toxic
same,Activity,[11],Non-Toxic
same,inhibition,[12],Active
O=C(O)/C=C/c1ccc(Cn2ccnc2)cc1 [OZAGREL],IC50,[13],3450 µM
CC1(C)S[C@@H]2[C@H](NC(=O)[C@H](N)c3ccc(O)cc3)C(=O)N2[C@H]1C(=O)O [AMOXICILLIN],IC50,[13],9000 µM
CC1(C)C=Cc2c(cc3c(c2O)C(=O)CC(c2ccc(O)cc2O)O3)O1 (configuration not stated) [DALENIN],IC50,[13],18.61 µM
S=C1NCC(c2ccccc2)O1 (configuration not stated),IC50,[13],42 µM
OC1COC(O)C(O)C1O (racemic),IC50,[13],100 µM
